In patent US20230321082A1, “USE OF TRIAZOLE ANALOGUES FOR INHIBITION OF A TRIPARTITE VOR PROTEIN COMPLEX IN MULTICELLULAR ORGANISMS” (TECHNISCHE UNIVERSITÄT DRESDEN, priority 2020, published 2023):

Experiments:
[1] = molecular target: T1, tripartite VAP-A, ORP3 and Rab7 (VOR) protein complex (Homo sapiens, UniProt Q9H4L5); assay: VOR complex integrity in whole SW480 cells (anti-ORP3 immunoisolation, Rab7 co-immunoisolation); type: cell-based; conditions: 10 μM, 5 hours
T1 construct: solubilized and subjected to immunoisolation (IS) using anti-ORP3 Ab followed by Protein G-coupled magnetic beads; endogenous in cells; host or cells: SW480 cells
T1 sequence (Q9H4L5 1-887): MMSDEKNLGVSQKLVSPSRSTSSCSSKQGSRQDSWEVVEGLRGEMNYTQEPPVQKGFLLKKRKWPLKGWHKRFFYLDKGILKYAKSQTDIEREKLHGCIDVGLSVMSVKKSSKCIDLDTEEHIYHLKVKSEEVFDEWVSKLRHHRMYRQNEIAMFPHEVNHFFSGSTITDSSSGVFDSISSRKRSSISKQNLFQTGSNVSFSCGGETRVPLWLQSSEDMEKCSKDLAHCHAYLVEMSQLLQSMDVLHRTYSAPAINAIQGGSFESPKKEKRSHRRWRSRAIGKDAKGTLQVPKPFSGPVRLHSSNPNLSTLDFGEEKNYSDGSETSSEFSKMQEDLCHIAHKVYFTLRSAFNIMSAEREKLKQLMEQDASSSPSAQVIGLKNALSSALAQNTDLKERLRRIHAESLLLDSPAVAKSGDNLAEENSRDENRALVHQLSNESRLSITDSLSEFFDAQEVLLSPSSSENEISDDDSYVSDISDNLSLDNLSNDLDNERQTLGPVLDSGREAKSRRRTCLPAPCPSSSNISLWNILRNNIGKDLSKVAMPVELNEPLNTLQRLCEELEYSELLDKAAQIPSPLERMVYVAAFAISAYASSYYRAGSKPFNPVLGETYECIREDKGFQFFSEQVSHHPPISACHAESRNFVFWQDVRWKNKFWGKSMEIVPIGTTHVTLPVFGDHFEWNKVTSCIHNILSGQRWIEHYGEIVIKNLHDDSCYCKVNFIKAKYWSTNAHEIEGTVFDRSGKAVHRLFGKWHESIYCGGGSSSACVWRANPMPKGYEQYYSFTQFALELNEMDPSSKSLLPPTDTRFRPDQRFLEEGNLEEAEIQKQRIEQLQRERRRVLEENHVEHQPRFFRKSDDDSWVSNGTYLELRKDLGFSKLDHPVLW
T1 sequence (Q9P0L0 1-249 partner): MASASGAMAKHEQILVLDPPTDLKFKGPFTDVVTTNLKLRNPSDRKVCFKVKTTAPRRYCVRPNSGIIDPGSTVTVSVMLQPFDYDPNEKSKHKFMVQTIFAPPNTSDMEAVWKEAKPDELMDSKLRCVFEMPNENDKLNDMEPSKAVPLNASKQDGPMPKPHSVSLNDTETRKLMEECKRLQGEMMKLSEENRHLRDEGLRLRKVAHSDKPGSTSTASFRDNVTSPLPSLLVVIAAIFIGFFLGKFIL
Protocol: SW480 cells were incubated with DMSO solvent alone (control), 10 μM ICZ, triazole compound 5, compound 3 or ketoconazole for 5 hours, solubilized and subjected to immunoisolation (IS) using anti-ORP3 Ab followed by Protein G-coupled magnetic beads. The input (1/50, for Rab7 only) and entire bound fractions were probed by immunoblotting for ORP3, VAP-A and Rab7. The Rab7/VAP-A ratios were quantified (n=3). The mean±S.D. are shown. P values are indicated.

[2] = molecular target: T1, tripartite VAP-A, ORP3 and Rab7 (VOR) protein complex; assay: VOR complex integrity in detergent SW480 cell lysates (anti-ORP3 immunoisolation, Rab7 co-immunoisolation); type: biochemical; conditions: 10 μM, 30 minutes on ice
Protocol: Detergent SW480 cell lysates were incubated with DMSO solvent alone (control), 10 μM ICZ, triazole compound 5, compound 3 or ketoconazole for 30 minutes on ice, and then subjected to immunoisolation (IS) using anti-ORP3 Ab followed by Protein G-coupled magnetic beads. The input (1/50, for Rab7 only) and entire bound fractions were probed by immunoblotting for ORP3, VAP-A and Rab7. The Rab7/VAP-A ratios were quantified (n=3). The mean±S.D. are shown. P values are indicated. […] Referring to FIGS. 12A, 12B, 12C and 12D illustrate the effects of various triazole compounds on the VOR complex integrity. Detergent SW480 cell lysates were incubated with DMSO solvent alone (control), 2.5 μM (FIG. 12A), 5 μM (FIG. 12B), 7.5 μM (FIG. 12C) or 10 μM (FIG. 12D) ICZ and triazole compounds for 30 minutes on ice and then subjected to immunoisolation (IS) using anti-ORP3 Ab followed by Protein G-coupled magnetic beads. The entire bound fractions were probed by immunoblotting for ORP3, VAP-A and Rab7 (data not shown). The percent inhibition of Rab7 expression were quantified and compared to the control sample (dashed line).

[3] = test system: Cancer SW480 cells; assay: MTS cell viability, SW480 cells; type: cell-based; conditions: 10 μM, 24, 48 and 72 hours
Protocol: (§1) Referring to FIG. 11, illustrates that triazole analogues were not toxic for cells. Cancer SW480 cells (left panel) and primary mesenchymal stromal cells (right panel) were incubated with DMSO solvent alone (control), 10 μM ICZ, compound 5, compound 3 or ketoconazole (KCZ) for 24, 48 and 72 hours as indicated. At the end of each time point, MTS tetrazolium compound (3-(4,5-dimethylthiazol-2-yl)-5-(3-carboxymethoxyphenyl)-2-(4-sulfophenyl)-2H-tetrazolium) was added for 1 hour to evaluate the amounts of viable cells. The absorbance value was measured at 490 nm. The mean±S.D. are shown (n=6). **, p<0.01.

[4] = test system: primary mesenchymal stromal cells; assay: MTS cell viability, primary mesenchymal stromal cells; type: cell-based; conditions: 10 μM, 24, 48 and 72 hours
Protocol: as §1

[5] = test system: HIV-1 integrase in HeLa cells; assay: Transport of HIV-1 integrase into the nucleoplasmic reticulum (IN-2 immunolabelling); type: cell-based; conditions: 10 μM, 30 minutes pretreatment, HIV-Gag-iGFP infection 1 hour
Protocol: (A) HeLa cells were pretreated with 10 μM of drugs as indicated for 30 minutes before HIV-Gag-iGFP infection for 1 hour in the presence of drugs. As controls, DMSO was used (DMSO, HIV-infected cells; control, uninfected cells). Cells were fixed and processed for double immunolabelling for VAP-A and HIV IN (IN-2). […] (B) HeLa cells expressing Rab7-RFP were treated as in panel A, and then double immunolabelled for SUN2 and IN-2. Scale bars, 10 (A) and 5 (B) μm.
Referring to FIG. 19A, B illustrates the quantification of IN-2 immunoreactivity in SUN2^+ NEI (A, 50 NEIs were assessed per experiment, n=3, individual values of each experiment is indicated) and the IN-2 nucleoplasm/cytoplasm ratio per cell (B, n=150 cells from three independent experiments) on HeLa cells treated with drugs as indicated (see FIG. 18B). Means±S.D. with individual values for each experiment (A) are shown. N.s., not significant; ***, p<0.001.

[6] = test system: SW480 cells; assay: Entry of Rab7+ late endosomes in SUN2+ NEI, confocal microscopy; type: cell-based; conditions: 10 μM, 5 hours
Protocol: Referring to FIG. 8, illustrates that the triazole compound 5 inhibited the entry of Rab7^+ late endosomes in NEI. SW480 cells were incubated with DMSO (control), 10 μM ICZ, triazole compound 5, triazole compound 3 or ketoconazole (KCZ) for 5 hours prior to double immunolabelling for Rab7 and nuclear membrane protein SUN2 and the staining with cholesterol-binding compound filipin. Cells were analyzed by confocal laser scanning microscopy (left panel). Arrows indicate SUN2^+ NEI and arrowheads point to Rab7 and filipin-labelled cholesterol therein. […] The mean±S.D. are shown. P values are indicated. N.s., not significant. Scale bars, 5 μm.

[7] = test system: SW480 cells; assay: EV-induced pro-metastatic morphological transformation; type: cell-based; conditions: 10 μM, 10 minutes pre-treatment, EVs 1×10^9 particles/ml, 5 hours
Protocol: Referring to FIG. 9, illustrates that the triazole compound 5 inhibited EV-induced pro-metastatic morphological transformation. SW480 cells were pre-treated with DMSO solvent alone (control), 10 μM ICZ, triazole compound 5 or compound 3 for 10 minutes prior to incubation without or with EVs (1×10^9 particles/ml) derived from metastatic SW620 cells for 5 hours. Cell morphology was analyzed by confocal laser scanning microscopy upon CD9 immunolabelling (data not shown). Bar graphs show the percentage of cells harboring a rounded (left panel) or blebbed (right panel) morphology upon exposure to EVs. The mean±S.D. are shown. At least 50 cells were evaluated per condition and independent experiment (n=6).

[8] = test system: SW480 cells; assay: Nuclear transfer of EV cargo (CD9-GFP); type: cell-based; conditions: 10 μM, 10 minutes pre-treatment, 5-hour incubation with EVs
Protocol: SW480 cells were pre-treated for 10 minutes with DMSO (control), 10 μM ICZ, triazole compound 5, triazole compound 3 or ketoconazole (KCZ) prior to 5-hour incubation with melanoma cell-derived CD9-green fluorescent protein (GFP)^+ EVs in the absence or presence of drugs. Recipient cells were then fixed and immunolabelled for the nuclear membrane protein SUN2. The amounts of EV-derived CD9-GFP in the nuclear compartments were analyzed by confocal laser scanning microscopy and quantified using Fiji software. Nuclear CD9-GFP was evaluated from 50 cells per condition and a representative experiment with mean±S.D. are shown. P values are indicated. N.s., not significant.

[9] = test system: SW480 cells; assay: Scratch wound healing assay, EV-induced migration; type: cell-based; conditions: 10 μM, EVs from SW620 cells 7.5×10^8 particles/ml, 5 hours
Protocol: Referring to FIG. 16, illustrates images of the scratch wound healing assay of SW480 cells treated with 10 μM drugs (ICZ, compound 5) without or with EVs (7.5×10^8 particles/ml) derived from SW620 cells for 5 hours (upper panels). The mean±S.E.M. (n=2 independent experiments) is presented (lower panel).

[10] = test system: HIV-Gag-iGFP infection of HeLa cells; assay: HIV-1 productive infection (HIV-Gag-iGFP expression); type: cell-based; conditions: 10 μM pretreatment, infection 6 hours, then 24 hours in presence of drugs
Protocol: Referring to FIG. 20A-C, illustrates the impact of drugs on productive infection. HeLa cells pretreated with drugs as above before HIV-Gag-iGFP infection for 6 hours, washed, and incubated for 24 hours in the presence of drugs. Samples were processed either for immunocytochemistry or flow cytometry analyses. DMSO was used as solvent vehicle. […] Dashed line represents DMSO-treated, noninfected cells as a negative control. […] The percentage of GFP^+ cells as assessed by flow cytometry is plotted (C). Means±S.D. with individual values for each experiment are shown. Cy, cytoplasm; Pm, plasma membrane; n.s., not significant; ***, p<0.001.

[11] = test system: host cells; assay: NEI-associated late endosomes and nuclear transfer of EV-derived components after importazole treatment; type: cell-based
Source text: Referring to FIGS. 1A, 1B and 1C, illustrate data showing the localization and tripartite structure of a VOR complex. […] Typically, EVs are transported to late endosomes after their endocytosis, wherein the EVs facilitate intercellular communication in diverse cellular processes.

SMILES | co-immunoisolation of Rab7 with ORP3 (Rab7/VAP-A ratio) [1] | co-immunoisolation of Rab7 with ORP3 (Rab7/VAP-A ratio) [2] | toxicity for cells (MTS, viable cells) [3] | toxicity for cells (MTS, viable cells) [4] | transport of HIV-1 integrase into the nucleoplasmic reticulum (IN-2 immunoreactivity in NEI) [5] | Rab7 and cholesterol in SUN2+ NEI [6] | entry of Rab7+ late endosomes in NEI [6] | morphological transformation (rounded or blebbed) induced by EVs from metastatic SW620 cells [7] | nuclear transfer of EV cargo (EV-derived CD9-GFP in nuclear compartments) [8] | migration of SW480 cells induced by EVs [9] | Gag-iGFP expression (productive infection) [10] | NEI-associated late endosomes [11] | transfer of EV-derived components into the nucleoplasm of host cells [11]
O=c1[nH]ncn1-c1ccc(Cl)cc1 [compound 3, 4-(4-Chlorophenyl)-2,4-dihydro-3H-1,2,4-triazol-3-one] | do not | do not | not toxic | not toxic | detected in NEI | – | – | – | – | – | – | – | –
CCC(C)n1ncn(-c2ccc(Cl)cc2)c1=O (centres unmarked) [compound 5, 2-(butan-2-yl)-4-(4-chlorophenyl)-2,4-dihydro-3H-1,2,4-triazol-3-one] | inhibit the co-immunoisolation of Rab7 | inhibits the co-immunoisolation of Rab7 | not toxic | not toxic | inhibit the transport of HIV-1 integrase into the nucleoplasmic reticulum | absence of Rab7 and cholesterol | inhibited | inhibited the morphological transformation | inhibited the nuclear transfer of EV cargo | inhibit the migration | reduction in Gag-iGFP expression | – | –
CC(Nc1nc(N2CCCC2)nc2ccccc12)c1ccccc1 (centres unmarked) [importazole] | – | – | – | – | – | – | – | – | – | – | – | lack of the NEI-associated late endosomes | inhibition of transfer
CC(=O)N1CCN(c2ccc(OCC3COC(Cn4ccnc4)(c4ccc(Cl)cc4Cl)O3)cc2)CC1 (centres unmarked) [ketoconazole, reference compound] | do not | do not | – | – | – | – | – | – | – | – | – | – | –
